Patent US20260365647A1, “AKT1 MODULATORS” (Alterome Therapeutics, Inc., priority 2022, published 2026)

Molecular target: T1, AKT1-E17K (Homo sapiens, UniProt P31749, E17K)
T1 construct: host or cells: HEK-293 (ATCC CRL-1573)
Test: NanoBRET Target Engagement (TE) Assay
Type: cell-based
Outline: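 Live cells transiently expressing NanoLuc-AKT1 E17K fusion, incubated 2 h with tracer and compound before substrate plus extracellular NanoLuc inhibitor were added. BRET read at 450/600 nm; EC50 from variable-slope sigmoidal fit of tracer displacement.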

T1 sequence (P31749 whole entry E17K): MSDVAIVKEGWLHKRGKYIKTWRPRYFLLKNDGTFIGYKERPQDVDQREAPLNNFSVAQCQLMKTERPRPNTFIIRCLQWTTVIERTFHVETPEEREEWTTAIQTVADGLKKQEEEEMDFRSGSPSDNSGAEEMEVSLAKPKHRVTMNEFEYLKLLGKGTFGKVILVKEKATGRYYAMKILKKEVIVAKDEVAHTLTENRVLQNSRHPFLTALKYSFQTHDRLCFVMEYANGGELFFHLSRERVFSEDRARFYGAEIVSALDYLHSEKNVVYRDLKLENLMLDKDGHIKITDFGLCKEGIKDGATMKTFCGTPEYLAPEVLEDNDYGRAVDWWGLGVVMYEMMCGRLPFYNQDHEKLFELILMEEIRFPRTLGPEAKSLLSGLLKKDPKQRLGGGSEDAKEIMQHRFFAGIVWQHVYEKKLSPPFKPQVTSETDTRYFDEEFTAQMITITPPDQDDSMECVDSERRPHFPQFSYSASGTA

An IC50 of 60 to 600 nM was found for `Nc1ncccc1-c1nc2ccc(-c3ccccc3)nc2n1-c1ccc(CN2C[C@@H]3CN(C(=O)c4ccc(O)c(C=O)c4)C[C@@H]3C2)cc1` [Example 131, 5-((3aR,6aS)-5-(4-(2-(2-Aminopyridin-3-yl)-5-phenyl-3H-imidazo[4,5-b]pyridin-3-yl)benzyl)octahydropyrrolo[3,4-c]pyrrole-2-carbonyl)-2-hydroxybenzaldehyde] in this work.
An IC50 of 15 to 60 nM was found for `Nc1ncccc1-c1nc2ccc(-c3ccccc3)nc2n1-c1ccc(CN2CCCC(NC(=O)c3ccc(O)c(C=O)c3)CC2)cc1` (stereo not drawn) [Example 115, N-(1-(4-(2-(2-Aminopyridin-3-yl)-5-phenyl-3H-imidazo[4,5-b]pyridin-3-yl)benzyl)azepan-4-yl)-3-formyl-4-hydroxybenzamide] in this work.
An IC50 of 15 to 60 nM was found for `Nc1ncccc1-c1nc2ccc(-c3ccccc3)nc2n1-c1ccc(CN2CCCN(C(=O)c3ccc(O)c(C=O)c3)CC2)cc1` [Example 119, 5-(4-(4-(2-(2-Aminopyridin-3-yl)-5-phenyl-3H-imidazo[4,5-b]pyridin-3-yl)benzyl)-1,4-diazepane-1-carbonyl)-2-hydroxybenzaldehyde] in this work.
An IC50 of 60 to 600 nM was found for `Nc1ncccc1-c1nc2ccc(-c3ccccc3)nc2n1-c1ccc(CN2CC3(C2)CN(c2ccc(O)c(C=O)c2)C3)cc1` [Example 91, 5-(6-(4-(2-(2-Aminopyridin-3-yl)-5-phenyl-3H-imidazo[4,5-b]pyridin-3-yl)benzyl)-2,6-diazaspiro[3.3]heptan-2-yl)-2-hydroxybenzaldehyde] in this work.
An IC50 of 60 to 600 nM was found for `Nc1ncccc1-c1nc2cccnc2n1-c1ccc(CNC(=O)c2ccc(O)c(C=O)c2)cc1` [Example 2, N-(4-(2-(2-Aminopyridin-3-yl)-3H-imidazo[4,5-b]pyridin-3-yl)benzyl)-3-formyl-4-hydroxybenzamide] in this work.
An IC50 of 60 to 600 nM was found for `Nc1ncccc1-c1nc2ccc(C3=CCOCC3)nc2n1-c1ccc(CN2CCN(C(=O)c3ccc(O)c(C=O)c3)CC2)cc1` [Example 29, 5-(4-(4-(2-(2-Aminopyridin-3-yl)-5-(3,6-dihydro-2H-pyran-4-yl)-3H-imidazo[4,5-b]pyridin-3-yl)benzyl)piperazine-1-carbonyl)-2-hydroxybenzaldehyde] in this work.
An IC50 of 60 to 600 nM was found for `CN(c1ccc(C=O)c(O)c1)C1CCN(Cc2ccc(-n3c(-c4cccnc4N)nc4ccc(-c5ccccc5)nc43)cc2)CC1` [Example 57, 4-((1-(4-(2-(2-Aminopyridin-3-yl)-5-phenyl-3H-imidazo[4,5-b]pyridin-3-yl)benzyl)piperidin-4-yl)(methyl)amino)-2-hydroxybenzaldehyde] in this work.
An IC50 of 60 to 600 nM was found for `Nc1ncccc1-c1nc2ccc(-c3ccccc3)nc2n1-c1ccc(CN2CC[C@]3(CCN(C(=O)c4ccc(O)c(C=O)c4)C3)C2)cc1` [Example 101, (S)-5-(7-(4-(2-(2-Aminopyridin-3-yl)-5-phenyl-3H-imidazo[4,5-b]pyridin-3-yl)benzyl)-2,7-diazaspiro[4.4]nonane-2-carbonyl)-2-hydroxybenzaldehyde] in this work.
An IC50 of 15 to 60 nM was found for `Nc1ncccc1-c1nc2ccc(-c3ccccc3)nc2n1-c1ccc(CN2CCN(c3cc(O)c(C=O)cc3F)CC2)cc1` [Example 25, 4-(4-(4-(2-(2-Aminopyridin-3-yl)-5-phenyl-3H-imidazo[4,5-b]pyridin-3-yl)benzyl)piperazin-1-yl)-5-fluoro-2-hydroxybenzaldehyde] in this work.
An IC50 greater than 600 nM was found for `Nc1ncccc1-c1nc2ccc(-c3ccccc3)nc2n1-c1ccc(CN2CC3CCC(C2)N3C(=O)c2ccc(C=O)c(O)c2)cc1` [Example 109, 4-(3-(4-(2-(2-Aminopyridin-3-yl)-5-phenyl-3H-imidazo[4,5-b]pyridin-3-yl)benzyl)-3,8-diazabicyclo[3.2.1]octane-8-carbonyl)-2-hydroxybenzaldehyde] in this work.
An IC50 greater than 600 nM was found for `C[C@H]1CN(Cc2ccc(-n3c(-c4cccnc4N)nc4ccc(-c5ccccc5)nc43)cc2)CCN1C(=O)c1ccc(C=O)c(O)c1` [Example 106, (S)-4-(4-(4-(2-(2-Aminopyridin-3-yl)-5-phenyl-3H-imidazo[4,5-b]pyridin-3-yl)benzyl)-2-methylpiperazine-1-carbonyl)-2-hydroxybenzaldehyde] in this work.
An IC50 of 15 to 60 nM was found for `Nc1ncccc1-c1nc2ccc(-c3ccccc3)nc2n1-c1ccc(CN2CC(NC(=O)c3ccc(O)c(C=O)c3)C2)cc1` [Example 61, N-(1-(4-(2-(2-Aminopyridin-3-yl)-5-phenyl-3H-imidazo[4,5-b]pyridin-3-yl)benzyl)azetidin-3-yl)-3-formyl-4-hydroxybenzamide] in this work.
An IC50 of 60 to 600 nM was found for `Nc1ncccc1-c1nc2ccc(-c3ccccc3)nc2n1-c1ccc(CN2CC3CCC2CN3C(=O)c2ccc(O)c(C=O)c2)cc1` (stereo not drawn) [Example 126, 5-(5-(4-(2-(2-Aminopyridin-3-yl)-5-phenyl-3H-imidazo[4,5-b]pyridin-3-yl)benzyl)-2,5-diazabicyclo[2.2.2]octane-2-carbonyl)-2-hydroxybenzaldehyde] in this work.
An IC50 of 15 to 60 nM was found for `Nc1ncccc1-c1nc2ccc(-c3ccccc3)nc2n1-c1ccc(CN2CC3(C2)CN(c2ccc(C=O)c(O)c2)C3)cc1` [Example 89, 4-(6-(4-(2-(2-aminopyridin-3-yl)-5-phenyl-3H-imidazo[4,5-b]pyridin-3-yl)benzyl)-2,6-diazaspiro[3.3]heptan-2-yl)-2-hydroxybenzaldehyde] in this work.
An IC50 of 60 to 600 nM was found for `Nc1ncccc1-c1nc2ccc(-c3ccccc3)nc2n1-c1ccc(CN2C[C@H]3CN(C(=O)c4ccc(C=O)c(O)c4)C[C@@H]3C2)cc1` [Example 136, 4-((3aS,6aS)-5-(4-(2-(2-Aminopyridin-3-yl)-5-phenyl-3H-imidazo[4,5-b]pyridin-3-yl)benzyl)octahydropyrrolo[3,4-c]pyrrole-2-carbonyl)-2-hydroxybenzaldehyde] in this work.
An IC50 of 60 to 600 nM was found for `Nc1ncccc1-c1nc2ccc(-c3ccccc3)nc2n1-c1ccc(CN2CC3(CCN(c4ccc(C=O)c(O)c4)CC3)C2)cc1` [Example 97, 4-(2-(4-(2-(2-Aminopyridin-3-yl)-5-phenyl-3H-imidazo[4,5-b]pyridin-3-yl)benzyl)-2,7-diazaspiro[3.5]nonan-7-yl)-2-hydroxybenzaldehyde] in this work.
An IC50 greater than 600 nM was found for `Nc1ncccc1-c1nc2ccc(-c3ccccc3F)nc2n1-c1ccc(CN2CCN(C(=O)c3ccc(C=O)c(O)c3)CC2)cc1` [Example 142, 4-(4-(4-(2-(2-Aminopyridin-3-yl)-5-(2-fluorophenyl)-3H-imidazo[4,5-b]pyridin-3-yl)benzyl)piperazine-1-carbonyl)-2-hydroxybenzaldehyde] in this work.
An IC50 of 60 to 600 nM was found for `Nc1ncccc1-c1nc2ccc(-c3ccccc3)nc2n1-c1ccc(CN2CC3(CCN(C(=O)c4ccc(C=O)c(O)c4)CC3)C2)cc1` [Example 96, 4-(2-(4-(2-(2-Aminopyridin-3-yl)-5-phenyl-3H-imidazo[4,5-b]pyridin-3-yl)benzyl)-2,7-diazaspiro[3.5]nonane-7-carbonyl)-2-hydroxybenzaldehyde] in this work.
An IC50 of 60 to 600 nM was found for `Nc1ncccc1-c1nc2ccc(-c3ccccc3)nc2n1-c1ccc(CN2CC3CCC2CN3C(=O)c2ccc(C=O)c(O)c2)cc1` (stereo not drawn) [Example 125, 4-(5-(4-(2-(2-aminopyridin-3-yl)-5-phenyl-3H-imidazo[4,5-b]pyridin-3-yl)benzyl)-2,5-diazabicyclo[2.2.2]octane-2-carbonyl)-2-hydroxybenzaldehyde] in this work.
An IC50 greater than 600 nM was found for `Nc1ncccc1-c1nc2ccc(-c3ccccc3)nc2n1-c1ccc(CN2CC3CCC(C2)N3c2ccc(C=O)c(O)c2)cc1` [Example 111, 4-(3-(4-(2-(2-Aminopyridin-3-yl)-5-phenyl-3H-imidazo[4,5-b]pyridin-3-yl)benzyl)-3,8-diazabicyclo[3.2.1]octan-8-yl)-2-hydroxybenzaldehyde] in this work.
An IC50 of 15 to 60 nM was found for `CN(C(=O)c1ccc(O)c(C=O)c1)C1CCN(Cc2ccc(-n3c(-c4cccnc4N)nc4ccc(-c5ccccc5)nc43)cc2)CC1` [Example 55, N-(1-(4-(2-(2-Aminopyridin-3-yl)-5-phenyl-3H-imidazo[4,5-b]pyridin-3-yl)benzyl)piperidin-4-yl)-3-formyl-4-hydroxy-N-methylbenzamide] in this work.
An IC50 of 60 to 600 nM was found for `Nc1ncccc1-c1nc2ccc(-c3ccccc3)nc2n1-c1ccc(CN2CCC3(CCN(C(=O)c4ccc(O)c(C=O)c4)C3)C2)cc1` (stereo not drawn) [Example 80, 5-(7-(4-(2-(2-Aminopyridin-3-yl)-5-phenyl-3H-imidazo[4,5-b]pyridin-3-yl)benzyl)-2,7-diazaspiro[4.4]nonane-2-carbonyl)-2-hydroxybenzaldehyde] in this work.
An IC50 of 15 to 60 nM was found for `Nc1ncccc1-c1nc2ccc(-c3ccccc3)nc2n1-c1ccc(CN2CCCN(C(=O)c3ccc(C=O)c(O)c3)CC2)cc1` [Example 72, 4-(4-(4-(2-(2-Aminopyridin-3-yl)-5-phenyl-3H-imidazo[4,5-b]pyridin-3-yl)benzyl)-1,4-diazepane-1-carbonyl)-2-hydroxybenzaldehyde] in this work.
An IC50 of 60 to 600 nM was found for `Nc1ncccc1-c1nc2ccc(-c3ccccc3)nc2n1-c1ccc(CN2C3CCC2CN(c2ccc(C=O)c(O)c2)C3)cc1` [Example 114, 4-(8-(4-(2-(2-Aminopyridin-3-yl)-5-phenyl-3H-imidazo[4,5-b]pyridin-3-yl)benzyl)-3,8-diazabicyclo[3.2.1]octan-3-yl)-2-hydroxybenzaldehyde] in this work.
An IC50 of 60 to 600 nM was found for `CN(C(=O)c1ccc(C=O)c(O)c1)C1CCN(Cc2ccc(-n3c(-c4cccnc4N)nc4ccc(-c5ccccc5)nc43)cc2)CC1` [Example 60, N-(1-(4-(2-(2-Aminopyridin-3-yl)-5-phenyl-3H-imidazo[4,5-b]pyridin-3-yl)benzyl)piperidin-4-yl)-4-formyl-3-hydroxy-N-methylbenzamide] in this work.
An IC50 of 60 to 600 nM was found for `Nc1ncccc1-c1nc2cc(-c3ccccc3)cnc2n1-c1ccc(CN2CCN(c3ccc(C=O)c(O)c3)CC2)cc1` [Example 54, 4-(4-(4-(2-(2-Aminopyridin-3-yl)-6-phenyl-3H-imidazo[4,5-b]pyridin-3-yl)benzyl)piperazin-1-yl)-2-hydroxybenzaldehyde] in this work.
An IC50 of 60 to 600 nM was found for `Nc1ncccc1-c1nc2ccc(-c3ccccc3)nc2n1-c1ccc(CN2CCCC(NC(=O)c3ccc(C=O)c(O)c3)CC2)cc1` (stereo not drawn) [Example 116, N-(1-(4-(2-(2-aminopyridin-3-yl)-5-phenyl-3H-imidazo[4,5-b]pyridin-3-yl)benzyl)azepan-4-yl)-4-formyl-3-hydroxybenzamide] in this work.
